Experimental data published in patent US11352350B2, “IRAK degraders and uses thereof” (Kymera Therapeutics, Inc., priority 2018, dated 2022).

Columns and labels:
IRAK4 [1] = biological target: T1, IRAK4 (Homo sapiens (Human), UniProt Q9NWZ3); assay: hPBMC IRAK4 degradation flow assay; format: cell-based; details: hPBMC monocyte
Experimental: hPBMC IRAK4 degradation flow assay. Frozen PBMCs were thawed into RPMI with 10% FBS and allowed to recover. On the same day as thawed, PBMCs were plated in 96 well plate, 90 uL per well. Compound plates were prepared and a 10 point, 5-fold dilution was performed with a final DMSO concentration of 0.1%. Compound 10 μL per well was added, sealed and incubated at 37° C., 5% C02 for 20 hours (for 4 hour treatment, compounds were prepared and added the following day). […] Cells were spun down and washed two times with PBS/0.5% BSA, aspirated to pellet and placed into −80° C. freezer until further processing for flow. On the flow run day, PBMC plates were thawed and samples were transferred to PCR plates. The pre-perm staining cocktail (CD3 Ax488/CD8 BUV805/CD14 BUV395/CD16/56 BV711/CD19 BV785) was added to samples and incubated for 30 minutes at room temperature. Samples were washed two times and permeabilized with methanol for 10 minutes at 4° C. […] Samples were washed two times with PBS/BSA and run on a BD LSRFortessa. Mononuclear cells are gated by SSCH/FSCH and single cells. Monocytes are then gated through CD14 positive gate and lymphocytes are gated through CD14 negative gate. To determine absolute DC50s and max degradation values, MFI values were normalized to DMSO max and 20 hour 10 μM min control. Twenty hour dose curves were calculated using a 4 parameter logistic regression curve fit, no constraints (Top doses were removed if hook effects were observed and the bottom was constrained to 0).

IRAK4 [2] = biological target: T1, IRAK4; assay: IRAK4 MSD degradation in OCI-LY10; format: cell-based
Outline: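 OCI-LY10 cells treated with 8-point 1:3 dilutions (top 1 to 10 μM final) for 4 to 24 h at 37° C. Lysate IRAK4 measured by MSD sandwich immunoassay (2H9 capture, Y279 detection, SULFO-TAG anti-rabbit). DC50 from three-parameter logistic fit.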

OCI-LY10 = assay: CTG Cell Viability Assay - OCI-LY10; format: cell-based, human; details: Homo sapiens, OCI-Ly10, 96 h, OCI-LY10, 4 days; read-out: CTG Cell Viability Assay - OCI-LY10: Average external-IC50
Outline: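 OCI-LY10 cells exposed to 9-dose, 1:3 dilutions from 10 μM top (0.2% DMSO) for 4 days at 37° C, 5% CO2. Viability by CellTiter-Glo luminescence; IC50 from three-parameter logistic fit.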

[3] = 20 hrs, read-out: IRAK4 degradation in hPBMC monocyte: DC50
[4] = OCI-LY10, 4 hrs, read-out: IRAK4 MSD degradation in OCI-LY10 at 4 hrs: DC50
[5] = 20 hr, flow assay, read-out: IRAK4 degradation in hPBMC monocyte at 20 hr: Average external Abs DC50
[6] = OCI-LY10, 4 hrs, MSD, read-out: IRAK4 MSD degradation in OCI-LY10 at 4 hrs: Average external-Abs DC50
[7] = OCI-LY10, 24 hrs, MSD, read-out: IRAK4 MSD degradation in OCI-LY10 at 24 hrs: Average external-Abs DC50

T1 sequence (Q9NWZ3 whole entry): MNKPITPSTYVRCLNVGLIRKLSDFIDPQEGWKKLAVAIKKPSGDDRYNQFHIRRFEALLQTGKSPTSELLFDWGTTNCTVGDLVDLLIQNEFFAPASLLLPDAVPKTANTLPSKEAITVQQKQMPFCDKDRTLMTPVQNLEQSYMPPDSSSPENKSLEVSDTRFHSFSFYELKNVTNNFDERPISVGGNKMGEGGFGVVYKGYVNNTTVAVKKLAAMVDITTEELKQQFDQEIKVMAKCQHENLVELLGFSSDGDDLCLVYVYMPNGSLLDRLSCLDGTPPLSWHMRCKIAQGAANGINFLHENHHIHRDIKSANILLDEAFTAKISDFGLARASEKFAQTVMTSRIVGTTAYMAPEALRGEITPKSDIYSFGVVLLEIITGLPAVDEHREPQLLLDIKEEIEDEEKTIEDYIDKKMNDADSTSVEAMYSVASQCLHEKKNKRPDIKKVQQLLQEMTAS

SMILES	DC50 (IRAK4 [1]; [3]) [nM]	DC50 (IRAK4 [2]; [4]) [nM]	further results
Cn1c(=O)n(C2CCC(=O)NC2=O)c2cccc(CCCOC3CCN(C[C@H]4CC[C@H](n5ncc(NC(=O)c6cnn7ccc(N8CCOCC8)nc67)c5C(F)F)CC4)CC3)c21 (stereo partly shown) [I-468]	100 to 1000	100 to 1000	
Cn1c(=O)n(C2CCC(=O)NC2=O)c2cccc(CCCC3CCN(C[C@H]4CC[C@H](C5N=C(NC(=O)c6cnn7ccc(N8CCOC9(CCC9)C8)nc67)C(C(F)F)=N5)CC4)CC3)c21 (stereo partly shown) [I-538]	< 10	10 to 100	
Cn1c(=O)n(C2CCC(=O)NC2=O)c2cccc(CCCOCCCC(CNC[C@H]3CC[C@H](n4cc(NC(=O)c5cnn6ccc(N7C[C@H]8C[C@@H]7CO8)nc56)c(C(F)F)n4)CC3)C(=O)O)c21 (stereo partly shown) [I-470]	100 to 1000	100 to 1000	
CN(CCCC#Cc1ccc2c(c1)n(C)c(=O)n2C1CCC(=O)NC1=O)C[C@H]1CC[C@H](n2cc(NC(=O)c3cnn4ccc(N5C[C@H]6C[C@@H]5CO6)nc34)c(C(F)F)n2)CC1 (stereo partly drawn) [I-546, 5-((1R,4R)-2-oxa-5-azabicyclo[2.2.1]heptan-5-yl)-N-(3-(difluoromethyl)-1-((1r,4R)-4-(((5-(1-(2,6-dioxopiperidin-3-yl)-3-methyl-2-oxo-2,3-dihydro-1H-benzo [d]imidazol-5-yl)pent-4-yn-1-yl)(methyl)amino)methyl)cyclohexyl)-1H-pyrazol-4-yl)pyrazolo[1,5-a] pyrimidine-3-carboxamide]	10 to 100	100 to 1000	
CN(C[C@H]1OC[C@H](n2cc(NC(=O)c3cnn4ccc(N5C[C@H]6C[C@@H]5CO6)nc34)c(C(F)F)n2)CO1)C1CCN(Cc2cccc3c2n(C)c(=O)n3C2CCC(=O)NC2=O)CC1 (stereo partly drawn) [I-507, N-[3-(difluoromethyl)-1-[2-[[[1-[[1-(2,6-dioxo-3-piperidyl)-3-methyl-2-oxo-benzimidazol-4-yl]methyl]-4-piperidyl]-methyl-amino]methyl]-1,3-dioxan-5-yl]pyrazol-4-yl]-5-[(1R,4R)-2-oxa-5-azabicyclo [2.2.1]heptan-5-yl] pyrazolo[1,5-a] pyrimidine-3-carboxamide]	< 10		
C[C@@H](CCc1cccc2c1n(C)c(=O)n2C1CCC(=O)NC1=O)OC1CCN(C[C@H]2CC[C@H](n3cc(NC(=O)c4cnn5ccc(N6C[C@H]7C[C@@H]6CO7)cc45)c(C(F)F)n3)CC2)CC1 (stereo partly shown) [I-545]	< 10	< 10	
Cn1c(=O)n(C2CCC(=O)NC2=O)c2cccc(C#CCOC3CCN(C[C@H]4CC[C@H](n5cc(NC(=O)c6cnn7ccc(N8CCOC9(CCC9)C8)nc67)c(C(F)F)n5)CC4)CC3)c21 (stereo partly shown) [I-541]	< 10	10 to 100	
Cn1c(=O)n(C2CCC(=O)NC2=O)c2cccc(CCCN3CCC4(CC3)CCN(C(=O)C3CCC(n5cc(NC(=O)c6cnn7ccc(N8C[C@H]9C[C@@H]8CO9)nc67)c(C(F)F)n5)CC3)CC4)c21 (stereo partly shown) [I-435]			DC50 (IRAK4 [1]; [5]): < 10 nM
Cn1c(=O)n(C2CCC(=O)NC2=O)c2cccc(CCCOC3CCN(C[C@H]4CC[C@H](n5cc(NC(=O)c6cnn7ccc(N8CCOC9(CCC9)C8)nc67)c(C(F)F)n5)CC4)CC3)c21 (stereo partly shown) [I-542]	< 10	10 to 100	
CN(CCCC#Cc1cccc2c1n(C)c(=O)n2C1CCC(=O)NC1=O)C[C@H]1CC[C@H](n2cc(NC(=O)c3cnn4ccc(N5C[C@H]6C[C@@H]5CO6)nc34)c(C(F)F)n2)CC1 (stereo partly drawn) [I-550, 5-((1R,4R)-2-oxa-5-azabicyclo[2.2.1]heptan-5-yl)-N-(3-(difluoromethyl)-1-((1r,4R)-4-(((5-(1-(2,6-dioxopiperidin-3-yl)-3-methyl-2-oxo-2,3-dihydro-1H-benzo [d]imidazol-4-yl)pent-4-yn-1-yl)(methyl)amino)methyl)cyclohexyl)-1H-pyrazol-4-yl)pyrazolo[1,5-a] pyrimidine-3-carboxamide]	< 10	10 to 100	
Cn1c(=O)n(C2CCC(=O)NC2=O)c2cccc(C(=O)N3CCC(OC[C@H]4CC[C@H](n5cc(NC(=O)c6cnn7ccc(N8C[C@H]9C[C@@H]8CO9)nc67)c(C(F)F)n5)CC4)CC3)c21 (stereo partly shown) [I-427]			DC50 (IRAK4 [1]; [5]): 100 to 1000 nM
C[C@H]1CN(c2ccn3ncc(C(=O)Nc4cn([C@H]5CC[C@H](CN6CCC(OCC#Cc7cccc8c7n(C)c(=O)n8C7CCC(=O)NC7=O)CC6)CC5)nc4C(F)F)c3n2)C[C@H](C)O1 (stereo partly shown) [I-536]	< 10	10 to 100	
Cn1c(=O)n(C2CCC(=O)NC2=O)c2cccc(C#CCC3CCN(C[C@H]4CC[C@H](C5N=C(NC(=O)c6cnn7ccc(N8C[C@H]9CC[C@@H](C8)O9)nc67)C(C(F)F)=N5)CC4)CC3)c21 (stereo partly shown) [I-534]	< 10	10 to 100	
Cn1c(=O)n(C2CCC(=O)NC2=O)c2cccc(CCCCC3CCN(Cc4ccc(-n5cc(NC(=O)c6cnn7ccc(N8C[C@H]9C[C@@H]8CO9)nc67)c(C(F)F)n5)cc4)CC3)c21 (stereo partly shown) [I-436]			DC50 (IRAK4 [1]; [5]): 100 to 1000 nM
CN1C(=O)C(C2CCC(=O)NC2=O)c2cc(C#CCOC3CCN(C[C@H]4CC[C@H](C5N=C(NC(=O)c6cnn7ccc(N8C[C@H]9C[C@@H]8CO9)nc67)C(C(F)F)=N5)CC4)CC3)ccc21 (stereo partly shown) [I-548]	100 to 1000	100 to 1000	
Cn1c(=O)n(C2CCC(=O)NC2=O)c2cccc(CCCC3CCN(C[C@H]4CC[C@H](C5N=C(NC(=O)c6cnn7ccc(N8C[C@H]9CC[C@@H](C8)O9)nc67)C(C(F)F)=N5)CC4)CC3)c21 (stereo partly shown) [I-535]	< 10	< 10	
C[C@@H]1CN(c2ccn3ncc(C(=O)Nc4cn([C@H]5CC[C@H](CN6CCC(OCC#Cc7cccc8c7n(C)c(=O)n8C7CCC(=O)NC7=O)CC6)CC5)nc4C(F)F)c3n2)C[C@H](C)O1 (stereo partly shown) [I-531]	< 10	10 to 100	
Cn1c(=O)n(C2CCC(=O)NC2=O)c2cccc(C#CCOC3CCN(C[C@H]4CC[C@H](n5cc(NC(=O)c6cnn7ccc(N8CCOC(C)(C)C8)nc67)c(C(F)F)n5)CC4)CC3)c21 (stereo partly shown) [I-533]	< 10	10 to 100	
Cn1c(=O)n(C2CCC(=O)NC2=O)c2cccc(CCCOC3CCN(C[C@H]4CC[C@H](n5cc(NC(=O)c6cnn7ccc(N8CCOC(C)(C)C8)nc67)c(C(F)F)n5)CC4)CC3)c21 (stereo partly shown) [I-539]	< 10	10 to 100	
Cn1c(=O)n(C2CCC(=O)NC2=O)c2cccc(CN3CC4(CCN(C(=O)[C@H]5CC[C@H](n6cc(NC(=O)c7cnn8ccc(N9C[C@H]%10C[C@@H]9CO%10)nc78)c(C(F)F)n6)CC5)CC4)C3)c21 (stereo partly shown) [I-429]			DC50 (IRAK4 [1]; [5]): < 10 nM
CC[C@@H]1CC(=O)N[C@@H]1COc1ncc(C#C[C@H]2CC[C@@H](CN3CCC(OCCCc4cccc5c4n(C)c(=O)n5C4CCC(=O)NC4=O)CC3)CC2)c2cc(C(N)=O)c(OC)cc12 (stereo partly shown) [I-202]			IC50 (OCI-LY10): > 1000 nM; DC50 (IRAK4 [2]; [6]): 100 to 1000 nM; DC50 (IRAK4 [2]; [7]): 10 to 100 nM
CC[C@@H]1CC(=O)N[C@@H]1COc1ncc(C#CC2CCN(CCCOCCCc3cccc4c3n(C)c(=O)n4C3CCC(=O)NC3=O)CC2)c2cc(C(N)=O)c(OC)cc12 (stereo partly shown) [I-203]			IC50 (OCI-LY10): > 1000 nM; DC50 (IRAK4 [2]; [6]): > 1000 nM; DC50 (IRAK4 [2]; [7]): 100 to 1000 nM
CN(C[C@H]1CN(CCCNc2cccc3c2C(=O)N(C2CCC(=O)NC2=O)C3=O)CCO1)C[C@H]1CC[C@H](n2cc(NC(=O)c3cnn4ccc(N5C[C@H]6C[C@@H]5CO6)nc34)c(C(F)F)n2)CC1 (stereo partly shown) [I-349]			IC50 (OCI-LY10): < 50 nM; DC50 (IRAK4 [2]; [6]): 100 to 1000 nM; DC50 (IRAK4 [2]; [7]): 10 to 100 nM
CN(CC1CCN(c2ccc3c(c2)n(C)c(=O)n3C2CCC(=O)NC2=O)CC1)C[C@H]1CC[C@H](n2cc(NC(=O)c3coc(-c4ccnc(NCC5CC5)c4)n3)c(C(F)F)n2)CC1 (stereo partly shown) [I-236]			IC50 (OCI-LY10): > 1000 nM; DC50 (IRAK4 [2]; [6]): < 10 nM
CN1C(=O)CCC(n2c(=O)n(C)c3c(CN4CCC(N(C)C[C@H]5CC[C@H](n6cc(NC(=O)c7coc(-c8ccnc(NCC9CC9)c8)n7)c(C(F)F)n6)CC5)CC4)cccc32)C1=O (stereo partly shown) [I-247]			IC50 (OCI-LY10): > 1000 nM; DC50 (IRAK4 [2]; [6]): 100 to 1000 nM
O=C1CCC(N2C(=O)c3cccc(NCCCOCCCOC[C@H]4CC[C@H](n5cc(NC(=O)c6cnn7ccc(N8C[C@H]9C[C@@H]8CO9)nc67)c(C(F)F)n5)CC4)c3C2=O)C(=O)N1 (stereo partly shown) [I-363]			IC50 (OCI-LY10): > 1000 nM; DC50 (IRAK4 [2]; [6]): > 1000 nM
CN(CCC1CCN(C(=O)c2ccc(CNCc3ccc(-c4ccc5c(cnn5CC5CC5)c4)cc3)cc2)CC1)C[C@H]1CC[C@H](n2cc(NC(=O)c3coc(-c4ccnc(NCC5CC5)c4)n3)c(C(F)F)n2)CC1 [I-134]			IC50 (OCI-LY10): > 1000 nM; DC50 (IRAK4 [2]; [6]): > 1000 nM; DC50 (IRAK4 [2]; [7]): > 1000 nM
O=C1CCC(N2C(=O)c3cccc(N4CCC(CCN5CCC(n6cc(NC(=O)c7cnn8ccc(N9CCOCC9)nc78)c(C(F)F)n6)CC5)CC4)c3C2=O)C(=O)N1 (stereo not shown) [I-227]			IC50 (OCI-LY10): < 50 nM; DC50 (IRAK4 [2]; [6]): 100 to 1000 nM
